Source: PubChem BioAssay (NCI)
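Each compound was tested at five concentrations against cells in 96-well plates for 48 hours. At the GI50, growth is halved. Definition used: TGI = concentration required for complete inhibition of growth.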

Assays:
Test in all cases: NCI-60 cell line screen, 48 h
[1] = tested on: NCI-H460 lung
[2] = tested on: DU-145 prostate
[3] = tested on: RXF 393 renal
[4] = tested on: SR leukemia
[5] = tested on: UACC-257 melanoma
[6] = tested on: SNB-75 CNS
[7] = tested on: HL-60(TB) leukemia
[8] = tested on: OVCAR-8 ovarian
[9] = tested on: SK-MEL-2 melanoma
[10] = tested on: U251 CNS
[11] = tested on: IGROV1 ovarian
[12] = tested on: A498 renal
[13] = tested on: OVCAR-3 ovarian
[14] = tested on: HS 578T breast
[15] = tested on: CAKI-1 renal
[16] = tested on: MDA-MB-231 breast
[17] = tested on: TK-10 renal
[18] = tested on: M14 melanoma
[19] = tested on: HOP-62 NSCLC
[20] = tested on: KM12 colon
[21] = tested on: SF-295 CNS
[22] = tested on: NCI-H522 lung
[23] = tested on: MOLT-4 leukemia
[24] = tested on: LOX IMVI melanoma
[25] = tested on: HCT-15 colon
[26] = tested on: MDA-MB-435
[27] = tested on: COLO 205 colon
[28] = tested on: NCI-H23 lung
[29] = tested on: MCF7 breast
[30] = tested on: SW-620 colon
[31] = tested on: K-562 leukemia
[32] = tested on: UO-31 renal
[33] = tested on: SK-OV-3 ovarian
[34] = tested on: SF-268 CNS
[35] = tested on: SN12C renal
[36] = tested on: A549 NSCLC
[37] = tested on: HCT-116 colon
[38] = tested on: OVCAR-5 ovarian
[39] = tested on: OVCAR-4 ovarian
[40] = tested on: EKVX NSCLC
[41] = tested on: HCC-2998 colon
[42] = tested on: T-47D breast
[43] = tested on: RPMI-8226 leukemia
[44] = tested on: SF-539 CNS
[45] = tested on: HOP-92 NSCLC
[46] = tested on: 786-0 renal
[47] = tested on: SK-MEL-28 melanoma
[48] = tested on: UACC-62 melanoma
[49] = tested on: SNB-19 CNS
[50] = tested on: PC-3 prostate
[51] = tested on: NCI/ADR-RES ovarian
[52] = tested on: ACHN renal
[53] = tested on: BT-549 breast
[54] = tested on: SK-MEL-5 melanoma
[55] = tested on: CCRF-CEM leukemia

C=C1CC[C@@H]2[C@](C)(COC(C)=O)[C@H](OC(C)=O)CC[C@@]2(C)[C@@H]1CC(Nc1ccc(S(=O)(=O)Nc2ncccn2)cc1)C1=CCOC1=O (stereo not given in full)
GI50 [1]: 1980 nM
TGI [1]: 4060 nM
GI50 [2]: 1620 nM
TGI [2]: 3070 nM
GI50 [3]: 1950 nM
TGI [3]: 3580 nM
GI50 [4]: 313 nM
TGI [4]: 17200 nM
GI50 [5]: 2340 nM
TGI [5]: 6070 nM
GI50 [6]: 1270 nM
TGI [6]: 3230 nM
GI50 [7]: 1300 nM
TGI [7]: 3640 nM
GI50 [8]: 1480 nM
TGI [8]: 3550 nM
GI50 [9]: 2360 nM
TGI [9]: 7200 nM
GI50 [10]: 1740 nM
TGI [10]: 3280 nM
GI50 [11]: 2040 nM
TGI [11]: 4410 nM
GI50 [12]: 12300 nM
TGI [12]: 24700 nM
GI50 [13]: 1210 nM
TGI [13]: 2540 nM
GI50 [14]: 3540 nM
TGI [14]: 24400 nM
GI50 [15]: 1740 nM
TGI [15]: 4040 nM
GI50 [16]: 1950 nM
TGI [16]: 3930 nM
GI50 [17]: 2770 nM
TGI [17]: 6030 nM
GI50 [18]: 1440 nM
TGI [18]: 3980 nM
GI50 [19]: 3020 nM
TGI [19]: 6440 nM
GI50 [20]: 2330 nM
TGI [20]: 5540 nM
GI50 [21]: 6070 nM
TGI [21]: 18700 nM
GI50 [22]: 498 nM
TGI [22]: 2070 nM
GI50 [23]: 2270 nM
TGI [23]: 8370 nM
GI50 [24]: 891 nM
TGI [24]: 2210 nM
GI50 [25]: 1210 nM
TGI [25]: 3330 nM
GI50 [26]: 1580 nM
TGI [26]: 3770 nM
GI50 [27]: 1780 nM
TGI [27]: 3800 nM
GI50 [28]: 2110 nM
TGI [28]: 5380 nM
GI50 [29]: 1070 nM
TGI [29]: 4540 nM
GI50 [30]: 864 nM
TGI [30]: 2250 nM
GI50 [31]: 1730 nM
TGI [31]: 11700 nM
GI50 [32]: 1510 nM
TGI [32]: 2970 nM
GI50 [33]: 6270 nM
TGI [33]: 18300 nM
GI50 [34]: 1930 nM
TGI [34]: 4160 nM
GI50 [35]: 430 nM
TGI [35]: 1960 nM
GI50 [36]: 3180 nM
TGI [36]: 9970 nM
GI50 [37]: 879 nM
TGI [37]: 2490 nM
GI50 [38]: 1980 nM
TGI [38]: 3850 nM
GI50 [39]: 1850 nM
TGI [39]: 5260 nM
GI50 [40]: 8180 nM
TGI [40]: 20600 nM
GI50 [41]: 2100 nM
TGI [41]: 3810 nM
GI50 [42]: 2000 nM
TGI [42]: 5460 nM
GI50 [43]: 541 nM
TGI [43]: 3120 nM
GI50 [44]: 1500 nM
TGI [44]: 2940 nM
GI50 [45]: 3100 nM
TGI [45]: 8850 nM
GI50 [46]: 1770 nM
TGI [46]: 3390 nM
GI50 [47]: 1690 nM
TGI [47]: 3240 nM
GI50 [48]: 1110 nM
TGI [48]: 2560 nM
GI50 [49]: 1630 nM
TGI [49]: 3760 nM
GI50 [50]: 2110 nM
TGI [50]: 5070 nM
GI50 [51]: 1830 nM
TGI [51]: 5280 nM
GI50 [52]: 1720 nM
TGI [52]: 3270 nM
GI50 [53]: 1640 nM
TGI [53]: 3390 nM
GI50 [54]: 1900 nM
TGI [54]: 3850 nM
GI50 [55]: 738 nM
TGI [55]: 3410 nM
